ChEMBL document CHEMBL1201862, “PubChem BioAssay data set” (2004)
Calls of active or inactive are those of the source.

Key:
Vero [1] = assay: Vero cell cytotoxicity, cytotoxicity control for flavivirus capping enzyme inhibitors (AID 588742); format: functional; conditions: Chlorocebus sabaeus
[2] = cytotoxicity in HEK-293T cells, dose response, cytotoxicity control for TCR NF-kB inhibitor project, luminescence, T-cell screen hits (AID 489026); format: functional, cell-based;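 also: cells exposed to compound about 14 hours before the viability readout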
[3] = insulin promoter down-regulators in MIN6 cells, imaging, high-content screening, mouse beta cells (AID 1628); format: functional
[4] = cytotoxicity in MIN6 insulinoma cells, dose response, cytotoxicity control, cell-based, mouse insulinoma (AID 2122); format: functional;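 also: confirmatory high-throughput counterscreen run to flag cytotoxic compounds; mouse MIN-6 beta cells carrying an insulin promoter eGFP reporter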
[5] = molecular target: T1, Probable nicotinate-nucleotide adenylyltransferase (Staphylococcus aureus (strain N315), UniProt P65502); format: functional, Staphylococcus aureus subsp. aureus N315;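 as to IC50 Mean: confirmatory dose-response retesting of NadD inhibitor hits first found in an ultra-high-throughput screen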
[6] = molecular target: T1, Probable nicotinate-nucleotide adenylyltransferase; format: functional, Staphylococcus aureus subsp. aureus N315; conditions: read-out: IC50_Mean
[7] = molecular target: Voltage-dependent T-type calcium channel subunit alpha-1H (Homo sapiens, UniProt O95180); format: functional;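 also: channel activity triggered by adding a high calcium stimulation buffer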
[8] = inhibitors of intracellular T. cruzi replication, confirmation, NIH3T3 host cells, beta-gal luminescence (AID 2044); format: functional, cell-based;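 also: intracellular parasites grown in NIH/3T3 mouse fibroblasts as host cells; luminescent beta-galactosidase reporter signal from transgenic T. cruzi replicating inside host cells; inhibitors lower the luminescence signal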
INS1 = assay: beta cell apoptosis inhibitors, cytokine rescue, dose response, luminescence, retest (AID 449756); format: functional, cell-based; conditions: Rattus norvegicus;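 also: cell death triggered by IL-1 beta plus TNF-alpha plus IFN-gamma mixture; protective hits raise ATP signal compared with cytokine alone wells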
[9] = cytotoxicity toward NIH3T3 fibroblasts, dose response, counter-screen, cell-based, ATP luminescence, mouse fibroblasts (AID 2010); format: functional;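 also: cells exposed to compound for about 90 hours before reading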
[10] = molecular target: G-protein coupled receptor 55 (Homo sapiens, UniProt Q9Y2T6); assay: GPR55 antagonists blocking LPI-driven arrestin recruitment, primary screen, imaging, U2OS, beta-arrestin-GFP, LPI agonist (AID 2013); format: functional;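 also: antagonist potency measured as reduced agonist-driven arrestin aggregation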
[11] = Luminescence Cell-Based Dose Response HTS to Identify Inhibitors of 5'UTR Stem-Loop Driven Prion Protein mRNA Translation in H4 Neuroglioblastoma Cells. [Related pubchem assays: 1827 (Project Summary), 1813 (Primary HTS)]; format: functional
[12] = inhibitors of firefly luciferase expression or activity, dose response, H4 neuroglioma cells, luminescence (AID 1990); format: functional, cell-based
[13] = inhibitors of SNCA 5'UTR-driven reporter translation, confirmation, H4 neuroglioma cells, luminescence (AID 1988); format: functional, cell-based
[14] = molecular target: 72 kDa type IV collagenase (Homo sapiens, UniProt P08253); assay: Dose Response validation of uHTS RPN11 inhibitor hits using a MMP-2 Fluorescence assay.; format: functional
[15] = molecular target: 26S proteasome non-ATPase regulatory subunit 14 (Homo sapiens, UniProt O00487); assay: inhibition of proteasome subunit RPN11 – biochemical, fluorescence polarization, uHTS hits, confirmation (AID 602368); format: functional
Prothrombin = Prothrombin (Bos taurus, UniProt P00735); assay: thrombin inhibition, dose response, biochemical, fluorescence polarization, uHTS hits (AID 602369); format: functional
[16] = molecular target: T2, Ubiquitin-conjugating enzyme E2 N (Homo sapiens, UniProt P61088); format: functional;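 also: Dose-response confirmation in a TR-FRET assay detecting UBC13-driven polyubiquitin chain formation, inhibition measured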
T2 sequence (P61088 whole entry): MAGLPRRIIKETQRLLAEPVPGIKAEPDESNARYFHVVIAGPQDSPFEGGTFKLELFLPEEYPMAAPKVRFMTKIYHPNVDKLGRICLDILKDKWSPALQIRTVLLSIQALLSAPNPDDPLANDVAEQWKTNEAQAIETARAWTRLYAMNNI

Vero [17] = assay: cells; format: functional; conditions: Chlorocebus sabaeus
HEK293 = assay: cells; format: functional, cell-based; conditions: Homo sapiens
[18] = molecular target: T3, Nuclear receptor subfamily 0 group B member 1 (Homo sapiens, UniProt P51843); assay: Luminescence-based cell-based high throughput dose response assay for inhibitors of the orphan nuclear receptor subfamily 0, group B, member 1 (DAX1; NR0B1). [Related pubchem assays (depositor defined):AID504766, AID504790]; format: functional
T3 sequence (P51843 whole entry): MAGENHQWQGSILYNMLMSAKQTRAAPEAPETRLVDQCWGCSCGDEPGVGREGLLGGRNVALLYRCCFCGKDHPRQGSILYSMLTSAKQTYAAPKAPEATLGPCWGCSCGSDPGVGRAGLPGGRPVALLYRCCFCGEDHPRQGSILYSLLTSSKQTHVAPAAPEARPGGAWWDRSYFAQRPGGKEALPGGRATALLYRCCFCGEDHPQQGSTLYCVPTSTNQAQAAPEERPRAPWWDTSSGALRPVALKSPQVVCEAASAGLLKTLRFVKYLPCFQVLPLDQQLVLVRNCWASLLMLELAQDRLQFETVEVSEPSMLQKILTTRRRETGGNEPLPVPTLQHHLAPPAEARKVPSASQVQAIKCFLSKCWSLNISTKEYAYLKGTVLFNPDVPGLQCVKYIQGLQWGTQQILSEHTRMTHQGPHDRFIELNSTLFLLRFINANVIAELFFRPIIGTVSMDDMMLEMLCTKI

[19] = molecular target: T4, RNA-binding protein pos-1 (Caenorhabditis elegans, UniProt G5EF15); assay: inhibitors of POS-1/mex-3 RNA binding, dose response, biochemical, fluorescence polarization (AID 1964);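 also: purified POS-1 fused to maltose binding protein made in E. coli; potency of compounds blocking POS-1 binding to fluorescent RNA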
T4 sequence (G5EF15 whole entry): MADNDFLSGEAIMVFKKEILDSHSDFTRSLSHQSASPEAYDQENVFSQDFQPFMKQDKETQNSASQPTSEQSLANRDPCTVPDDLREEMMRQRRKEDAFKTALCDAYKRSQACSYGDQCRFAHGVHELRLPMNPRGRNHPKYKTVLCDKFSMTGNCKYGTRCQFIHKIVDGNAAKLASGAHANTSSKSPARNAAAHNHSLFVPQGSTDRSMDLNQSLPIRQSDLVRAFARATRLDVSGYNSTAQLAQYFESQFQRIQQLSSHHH

[20] = molecular target: T5, Zinc finger protein mex-5 (Caenorhabditis elegans, UniProt Q9XUB2); assay: MEX-5/TCR-2 RNA interaction inhibitors, dose response, biochemical, C. elegans, fluorescence polarization (AID 1960)
T5 sequence (Q9XUB2 whole entry): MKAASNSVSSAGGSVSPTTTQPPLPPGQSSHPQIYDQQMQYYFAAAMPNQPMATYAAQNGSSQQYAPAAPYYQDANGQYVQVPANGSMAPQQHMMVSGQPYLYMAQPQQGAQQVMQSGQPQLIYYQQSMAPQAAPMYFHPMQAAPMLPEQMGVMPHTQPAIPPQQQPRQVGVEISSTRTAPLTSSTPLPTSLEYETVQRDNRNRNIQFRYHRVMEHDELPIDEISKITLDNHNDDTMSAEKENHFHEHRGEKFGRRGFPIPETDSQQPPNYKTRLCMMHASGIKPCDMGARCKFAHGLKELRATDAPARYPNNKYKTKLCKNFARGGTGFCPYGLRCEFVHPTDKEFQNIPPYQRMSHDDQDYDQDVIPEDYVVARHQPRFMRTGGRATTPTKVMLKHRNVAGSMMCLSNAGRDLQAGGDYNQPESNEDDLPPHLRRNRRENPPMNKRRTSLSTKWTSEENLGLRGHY

G-protein coupled receptor 55, sequence (Q9Y2T6 whole entry): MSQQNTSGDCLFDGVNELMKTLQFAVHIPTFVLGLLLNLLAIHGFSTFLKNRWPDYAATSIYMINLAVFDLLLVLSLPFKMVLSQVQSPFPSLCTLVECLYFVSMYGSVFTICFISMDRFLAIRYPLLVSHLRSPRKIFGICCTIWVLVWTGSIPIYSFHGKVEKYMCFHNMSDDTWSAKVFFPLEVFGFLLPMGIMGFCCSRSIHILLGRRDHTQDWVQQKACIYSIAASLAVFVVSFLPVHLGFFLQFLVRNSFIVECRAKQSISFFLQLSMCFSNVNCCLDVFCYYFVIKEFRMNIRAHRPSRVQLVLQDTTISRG
Voltage-dependent T-type calcium channel subunit alpha-1H, sequence (O95180 whole entry): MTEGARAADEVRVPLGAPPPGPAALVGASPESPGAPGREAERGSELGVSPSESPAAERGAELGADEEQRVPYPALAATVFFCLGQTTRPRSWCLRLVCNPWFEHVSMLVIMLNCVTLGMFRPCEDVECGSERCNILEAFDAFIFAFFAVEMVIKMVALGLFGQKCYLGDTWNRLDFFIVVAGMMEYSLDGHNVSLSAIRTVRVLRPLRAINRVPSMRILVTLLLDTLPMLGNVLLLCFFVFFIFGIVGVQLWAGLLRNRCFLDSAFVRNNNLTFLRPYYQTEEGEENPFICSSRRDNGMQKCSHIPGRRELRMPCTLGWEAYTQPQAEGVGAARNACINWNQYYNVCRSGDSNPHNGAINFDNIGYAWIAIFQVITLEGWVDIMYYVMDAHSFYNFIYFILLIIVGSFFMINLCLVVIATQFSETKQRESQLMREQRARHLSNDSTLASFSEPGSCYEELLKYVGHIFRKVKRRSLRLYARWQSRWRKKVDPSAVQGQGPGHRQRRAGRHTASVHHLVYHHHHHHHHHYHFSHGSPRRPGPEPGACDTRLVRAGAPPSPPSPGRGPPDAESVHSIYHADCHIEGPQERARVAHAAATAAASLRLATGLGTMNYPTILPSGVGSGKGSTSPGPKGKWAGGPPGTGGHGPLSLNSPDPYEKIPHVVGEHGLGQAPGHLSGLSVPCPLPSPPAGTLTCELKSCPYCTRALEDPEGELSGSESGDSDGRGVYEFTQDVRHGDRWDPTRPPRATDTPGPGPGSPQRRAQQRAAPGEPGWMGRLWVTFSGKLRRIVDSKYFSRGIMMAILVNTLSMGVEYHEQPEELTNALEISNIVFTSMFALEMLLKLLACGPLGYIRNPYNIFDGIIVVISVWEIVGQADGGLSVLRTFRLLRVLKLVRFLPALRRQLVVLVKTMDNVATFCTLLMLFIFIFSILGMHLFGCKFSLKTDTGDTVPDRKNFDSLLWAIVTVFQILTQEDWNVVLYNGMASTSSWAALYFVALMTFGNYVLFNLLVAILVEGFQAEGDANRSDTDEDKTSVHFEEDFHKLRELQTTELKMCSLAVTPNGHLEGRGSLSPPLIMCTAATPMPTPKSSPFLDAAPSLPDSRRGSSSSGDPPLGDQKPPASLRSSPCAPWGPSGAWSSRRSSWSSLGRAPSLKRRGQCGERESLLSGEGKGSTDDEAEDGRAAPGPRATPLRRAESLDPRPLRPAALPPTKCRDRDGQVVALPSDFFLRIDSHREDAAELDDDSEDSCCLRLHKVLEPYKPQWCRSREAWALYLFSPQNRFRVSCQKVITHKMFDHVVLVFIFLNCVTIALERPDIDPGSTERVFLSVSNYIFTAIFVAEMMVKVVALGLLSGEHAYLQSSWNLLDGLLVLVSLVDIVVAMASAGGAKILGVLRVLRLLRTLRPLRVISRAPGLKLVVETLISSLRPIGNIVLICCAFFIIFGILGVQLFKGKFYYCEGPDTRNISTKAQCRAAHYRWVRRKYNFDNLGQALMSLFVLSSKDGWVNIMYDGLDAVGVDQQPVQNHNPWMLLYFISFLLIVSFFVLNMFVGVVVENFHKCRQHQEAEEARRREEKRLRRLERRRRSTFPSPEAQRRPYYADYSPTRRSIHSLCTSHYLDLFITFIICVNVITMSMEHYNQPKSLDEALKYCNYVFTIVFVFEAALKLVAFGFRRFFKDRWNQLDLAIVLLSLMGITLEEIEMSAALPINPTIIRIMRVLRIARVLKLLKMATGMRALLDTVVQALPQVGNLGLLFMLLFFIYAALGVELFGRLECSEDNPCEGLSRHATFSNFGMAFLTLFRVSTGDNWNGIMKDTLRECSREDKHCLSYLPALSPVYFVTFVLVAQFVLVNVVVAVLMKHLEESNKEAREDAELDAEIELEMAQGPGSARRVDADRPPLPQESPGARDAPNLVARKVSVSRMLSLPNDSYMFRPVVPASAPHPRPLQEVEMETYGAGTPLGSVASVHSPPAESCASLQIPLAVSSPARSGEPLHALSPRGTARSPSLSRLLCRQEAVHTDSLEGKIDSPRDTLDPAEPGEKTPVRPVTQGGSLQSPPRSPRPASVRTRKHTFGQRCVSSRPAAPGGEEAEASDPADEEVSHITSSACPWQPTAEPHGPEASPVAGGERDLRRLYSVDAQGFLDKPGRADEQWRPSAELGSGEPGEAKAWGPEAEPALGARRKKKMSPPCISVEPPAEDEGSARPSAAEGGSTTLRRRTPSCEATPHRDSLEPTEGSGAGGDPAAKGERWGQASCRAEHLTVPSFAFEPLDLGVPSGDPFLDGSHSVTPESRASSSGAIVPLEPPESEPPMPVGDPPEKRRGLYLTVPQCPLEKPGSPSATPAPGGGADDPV
T1 sequence (P65502 whole entry): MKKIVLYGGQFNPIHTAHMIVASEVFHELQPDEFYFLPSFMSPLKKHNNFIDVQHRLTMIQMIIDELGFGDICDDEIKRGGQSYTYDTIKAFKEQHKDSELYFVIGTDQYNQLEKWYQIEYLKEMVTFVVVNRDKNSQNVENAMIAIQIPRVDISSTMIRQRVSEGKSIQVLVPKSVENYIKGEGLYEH
26S proteasome non-ATPase regulatory subunit 14, sequence (O00487 whole entry): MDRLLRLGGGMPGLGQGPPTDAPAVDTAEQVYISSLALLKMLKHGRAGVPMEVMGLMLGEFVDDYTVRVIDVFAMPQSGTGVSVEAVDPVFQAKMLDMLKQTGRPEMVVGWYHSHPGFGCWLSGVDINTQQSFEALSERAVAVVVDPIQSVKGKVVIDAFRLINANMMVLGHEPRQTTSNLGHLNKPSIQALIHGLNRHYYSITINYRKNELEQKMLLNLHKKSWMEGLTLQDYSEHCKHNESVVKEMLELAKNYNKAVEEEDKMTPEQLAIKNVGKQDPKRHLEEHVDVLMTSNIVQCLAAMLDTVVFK
72 kDa type IV collagenase, sequence (P08253 whole entry): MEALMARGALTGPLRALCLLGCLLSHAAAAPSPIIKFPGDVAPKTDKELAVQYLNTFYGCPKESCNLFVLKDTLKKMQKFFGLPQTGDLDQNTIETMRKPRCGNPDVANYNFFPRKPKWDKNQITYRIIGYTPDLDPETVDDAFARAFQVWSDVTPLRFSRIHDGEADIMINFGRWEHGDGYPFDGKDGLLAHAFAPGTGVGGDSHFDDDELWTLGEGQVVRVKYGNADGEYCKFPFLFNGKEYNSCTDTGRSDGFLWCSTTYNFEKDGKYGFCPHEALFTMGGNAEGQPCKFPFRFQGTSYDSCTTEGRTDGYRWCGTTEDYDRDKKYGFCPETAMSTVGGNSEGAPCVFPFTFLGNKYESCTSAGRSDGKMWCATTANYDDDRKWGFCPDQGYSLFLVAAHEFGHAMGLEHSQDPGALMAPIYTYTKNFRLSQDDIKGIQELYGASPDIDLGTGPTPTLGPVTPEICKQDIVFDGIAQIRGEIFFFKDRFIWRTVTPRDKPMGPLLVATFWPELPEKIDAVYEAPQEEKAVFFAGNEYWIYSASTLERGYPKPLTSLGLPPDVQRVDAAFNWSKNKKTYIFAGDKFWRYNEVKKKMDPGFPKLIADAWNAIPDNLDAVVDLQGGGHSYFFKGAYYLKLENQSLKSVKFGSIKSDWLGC

COc1ccc(CSc2nnc(NC(C)=O)s2)cc1[N+](=O)[O-]
CC50 (Vero [1]): > 40 µM (active)

Brc1ccc2c(c1)C(C1=NCCN1)c1ccccc1CS2 (stereo unspecified)
IC50 [2]: > 80 µM (inactive)

COC(=O)c1[nH]c2ccccc2c1NC(=O)CN1CCCCCC1
IC50 [3]: 3.51 µM (active) | IC50 [4]: 2.63 µM (active)

Cc1ccc(-n2nc3c(c2NC(=O)c2cccs2)CSC3)cc1
IC50 [5]: 6.35 µM (active) | IC50 [6]: 16.2 µM (active) | EC50 [7]: 0.558 µM (active)

Cc1[nH]n(C2=NCCS2)c(=O)c1N=Nc1cccc(C(F)(F)F)c1
EC50 [8]: 0.669 µM (active) | IC50 [3]: 1.75 µM (active) | AC50 (INS1): 2.5 µM (active) | IC50 [4]: 2.2 µM (active) | EC50 [9]: > 60 µM (not active)

O=C(Nc1nc2ccc(S(=O)(=O)N3CCCC3)cc2s1)C1CCCCC1
IC50 [2]: > 80 µM (inactive)

COc1ccc(OC)c(N2C(=O)NC(=O)/C(=C/c3c(C)[nH]c4ccccc34)C2=O)c1
IC50 [10]: < 0.5 µM (active)

CN1CCc2c(sc3c2C(=O)NC(c2cn(Cc4ccccc4)c4ccccc24)N3)C1 (stereo unspecified)
EC50 [11]: 8.12 µM (active) | EC50 [12]: 8.71 µM (active) | EC50 [13]: 5.25 µM (active) | IC50 [14]: > 100 µM (inactive) | IC50 [15]: 23.4 µM (active) | IC50 (Prothrombin): 16 µM (active) | IC50 [16]: > 20 µM (inactive) | CC50 (Vero [17]): 17.1 µM (active)

O=C(CN1C(=O)NC2(CCCC2)C1=O)NCC1CCCO1 (stereo unspecified)
IC50 (HEK293): > 67.5 µM (inactive) | IC50 [18]: > 67.5 µM (inactive)

COc1ccccc1N1CCN(S(=O)(=O)c2cc(C(F)(F)F)cc(C(F)(F)F)c2)CC1
IC50 (HEK293): > 67.5 µM (inactive) | IC50 [18]: > 67.5 µM (inactive)

COc1ccc(N2C(=O)NC(=O)/C(=C\c3cn(CC(=O)N4CCOCC4)c4ccccc34)C2=O)c(OC)c1
EC50 [19]: > 300 µM (not active) | IC50 [10]: 1.59 µM (active) | EC50 [20]: > 300 µM (not active)

Cn1c(-c2ccccc2)c(/C=N/NC(=O)c2ccc(O)cc2)c2ccccc21
IC50 (HEK293): > 67.5 µM (inactive) | IC50 [18]: > 67.5 µM (inactive)

CCOCCCNc1[nH]cnc2c3ccccc3nc1-2
IC50 [3]: 2.76 µM (active) | IC50 [4]: 2.31 µM (active)

CCn1c(SCc2ccc(C)cc2)nnc1C1CCN(S(=O)(=O)c2ccc(OC)cc2)CC1
EC50 [19]: > 300 µM (not active) | EC50 [7]: 6.41 µM (active) | EC50 [20]: > 300 µM (not active)

CN1CCN(S(=O)(=O)c2cccc(C(=O)Nc3sc4c(c3-c3nc5ccccc5[nH]3)CCCC4)c2)CC1
CC50 (Vero [1]): > 40 µM (active) | EC50 [8]: 1.67 µM (active) | EC50 [9]: > 60 µM (not active)

O=C(CSc1nnc(Cc2cc(O)nc(O)n2)n1-c1ccc(F)cc1)N1CCCCC1
IC50 (HEK293): > 67.6 µM (inactive) | IC50 [18]: > 67.6 µM (inactive)
